Source: the supplement of paper PMC10307832

Assays:
Assay in all cases: relative viability (nuclei count vs DMSO), 5 days (fraction); higher = more cells survive
Linifanib + Trametinib = compound: Cc1ccc(F)c(NC(=O)Nc2ccc(-c3cccc4[nH]nc(N)c34)cc2)c1 [Linifanib] + CC(=O)Nc1cccc(-n2c(=O)n(C3CC3)c(=O)c3c(Nc4ccc(I)cc4F)n(C)c(=O)c(C)c32)c1 [Trametinib] (partner 0.02 µM)
Outline: (§1)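 Values are medians from duplicate plates. Each reflects relative viability, defined as the nuclei count of treated wells over that of vehicle wells. Lung cancer cell lines in 1536-well plates were pin-tool dosed one day after seeding with one drug alone or with a fixed anchor-drug dose plus five library-drug doses (not always all listed) in √10 steps, then fixed, stained and imaged at 4× after 5 days.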

Linifanib + Foretinib = compound: Cc1ccc(F)c(NC(=O)Nc2ccc(-c3cccc4[nH]nc(N)c34)cc2)c1 [Linifanib] + COc1cc2c(Oc3ccc(NC(=O)C4(C(=O)Nc5ccc(F)cc5)CC4)cc3F)ccnc2cc1OCCCN1CCOCC1 [Foretinib] (partner 0.25 µM)
Outline: as §1

Linifanib + Crizotinib = compound: Cc1ccc(F)c(NC(=O)Nc2ccc(-c3cccc4[nH]nc(N)c34)cc2)c1 [Linifanib] + C[C@@H](Oc1cc(-c2cnn(C3CCNCC3)c2)cnc1N)c1c(Cl)ccc(F)c1Cl [Crizotinib] (partner 1 µM)
Outline: as §1

Linifanib + Linsitinib = compound: Cc1ccc(F)c(NC(=O)Nc2ccc(-c3cccc4[nH]nc(N)c34)cc2)c1 [Linifanib] + C[C@]1(O)C[C@@H](c2nc(-c3ccc4ccc(-c5ccccc5)nc4c3)c3c(N)nccn32)C1 [Linsitinib] (partner 1 µM)
Outline: as §1

Linifanib + Phenformin = compound: Cc1ccc(F)c(NC(=O)Nc2ccc(-c3cccc4[nH]nc(N)c34)cc2)c1 [Linifanib] + N=C(N)NC(=N)NCCc1ccccc1 [Phenformin] (partner 250 µM)
Outline: as §1

Linifanib + Pemetrexed = compound: Cc1ccc(F)c(NC(=O)Nc2ccc(-c3cccc4[nH]nc(N)c34)cc2)c1 [Linifanib] + Nc1nc2[nH]cc(CCc3ccc(C(=O)N[C@@H](CCC(=O)O)C(=O)O)cc3)c2c(=O)[nH]1 [Pemetrexed] (partner 0.2 µM)
Outline: as §1

| Cell Line | relative viability (Linifanib + Trametinib; first compound 0.03162 µM) | relative viability (Linifanib + Trametinib; first compound 0.1 µM) | relative viability (Linifanib + Trametinib; first compound 0.3162 µM) | relative viability (Linifanib + Foretinib; first compound 0.03162 µM) | relative viability (Linifanib + Foretinib; first compound 0.1 µM) | relative viability (Linifanib + Foretinib; first compound 0.3162 µM) | relative viability (Linifanib + Crizotinib; first compound 0.03162 µM) | relative viability (Linifanib + Crizotinib; first compound 0.1 µM) | relative viability (Linifanib + Crizotinib; first compound 0.3162 µM) | relative viability (Linifanib + Linsitinib; first compound 0.03162 µM) | relative viability (Linifanib + Linsitinib; first compound 0.1 µM) | relative viability (Linifanib + Linsitinib; first compound 0.3162 µM) | relative viability (Linifanib + Phenformin; first compound 0.03162 µM) | relative viability (Linifanib + Phenformin; first compound 0.1 µM) | relative viability (Linifanib + Phenformin; first compound 0.3162 µM) | relative viability (Linifanib + Pemetrexed; first compound 0.03162 µM) | relative viability (Linifanib + Pemetrexed; first compound 0.1 µM) | relative viability (Linifanib + Pemetrexed; first compound 0.3162 µM) |
| --- | --- | --- | --- | --- | --- | --- | --- | --- | --- | --- | --- | --- | --- | --- | --- | --- | --- | --- |
| HCC-827 | 0.559 | 0.522 | 0.514 | 1.06 | 1.11 | 1.1 | 0.957 | 0.957 | 0.884 | 0.992 | 0.999 | 0.996 | 0.432 | 0.453 | 0.382 | 0.21 | 0.265 | 0.235 |
| HOP-62 | 0.412 | 0.439 | 0.355 | 1.14 | 1.12 | 1.02 | 0.924 | 1.04 | 0.968 | 1.08 | 0.896 | 0.876 | 0.736 | 0.689 | 0.653 | 0.312 | 0.261 | 0.295 |
| LC-2-ad | 0.87 | 0.924 | 0.824 | 0.905 | 0.911 | 0.904 | 0.588 | 0.404 | 0.381 | 0.691 | 0.851 | 0.766 | 0.645 | 0.609 | 0.505 | 0.307 | 0.293 | 0.269 |
| LCLC-97TM1 | 0.2 | 0.179 | 0.16 | 0.865 | 0.961 | 0.852 | 0.43 | 0.456 | 0.362 | 0.17 | 0.214 | 0.171 | 0.423 | 0.437 | 0.341 | 0.202 | 0.16 | 0.146 |
| LCLC-103H | 0.721 | 0.669 | 0.64 | 0.629 | 0.753 | 0.803 | 1.05 | 1.2 | 0.943 | 1.13 | 1.07 | 0.978 | 0.329 | 0.338 | 0.329 | 0.477 | 0.469 | 0.458 |
| LK-2 | 0.707 | 0.769 | 0.742 | 1.12 | 1.33 | 1.08 | 0.216 | 0.195 | 0.219 | 0.516 | 0.502 | 0.536 | 0.447 | 0.691 | 0.4 | 0.278 | 0.318 | 0.272 |
| LOU-NH91 | 0.775 | 0.798 | 0.762 | 0.942 | 0.981 | 0.884 | 0.74 | 0.767 | 0.769 | 0.899 | 1.01 | 0.954 | 0.734 | 0.806 | 0.732 | 0.416 | 0.372 | 0.364 |
| LU99A | 0.558 | 0.582 | 0.587 | 0.856 | 0.973 | 0.826 | 0.61 | 0.57 | 0.558 | 0.503 | 0.551 | 0.505 | 0.878 | 0.892 | 0.793 | 0.182 | 0.171 | 0.202 |
| LXF-289 | 0.749 | 0.695 | 0.624 | 1.09 | 0.975 | 0.936 | 0.887 | 0.855 | 0.742 | 0.989 | 1.02 | 0.972 | 0.558 | 0.536 | 0.496 | 0.97 | 0.906 | 0.853 |
| NCI-H23 | 0.399 | 0.487 | 0.396 | 1.28 | 0.964 | 1.15 | 0.555 | 0.463 | 0.506 | 0.536 | 0.798 | 0.475 | 0.773 | 0.838 | 0.749 | 0.66 | 0.882 | 0.761 |
| NCI-H322M | 0.549 | 0.345 | 0.506 | 0.939 | 1.06 | 1.02 | 0.954 | 0.982 | 0.828 | 1 | 0.865 | 0.838 | 0.756 | 0.819 | 0.737 | 0.598 | 0.589 | 0.65 |
| NCI-H358 | 0.121 | 0.121 | 0.137 | 0.825 | 0.794 | 0.717 | 0.502 | 0.762 | 0.51 | 0.691 | 0.738 | 0.693 | 0.375 | 0.385 | 0.322 | 0.168 | 0.166 | 0.155 |
| NCI-H727 | 0.396 | 0.418 | 0.388 | 1.03 | 0.921 | 0.723 | 1.01 | 1.01 | 0.725 | 0.224 | 0.291 | 0.222 | 0.609 | 0.574 | 0.609 | – | – | – |
| NCI-H1395 | 0.943 | 0.882 | 0.933 | 0.967 | 1.05 | 0.998 | – | – | – | 1.06 | 1.08 | 1.09 | 0.444 | 0.454 | 0.414 | 0.92 | 1.02 | 0.825 |
| NCI-H1650 | 0.563 | 0.673 | 0.541 | 0.966 | 1.33 | 1.07 | 0.955 | 1.17 | 0.864 | – | – | – | 0.428 | 0.571 | 0.412 | 0.364 | 0.346 | 0.348 |
| NCI-H1792 | 0.389 | 0.459 | 0.439 | – | – | – | 0.941 | 1.06 | 0.984 | 0.386 | 0.522 | 0.535 | 0.517 | 0.519 | 0.337 | 1.03 | 1 | 0.724 |
| NCI-H1793 | 0.372 | 0.56 | 0.434 | 0.843 | 0.953 | 0.734 | – | – | – | 0.897 | 0.976 | 0.817 | 0.278 | 0.379 | 0.321 | 0.939 | 1.17 | 1.07 |
| NCI-H2170 | 0.922 | 0.855 | 0.937 | 0.792 | 1.01 | 0.99 | 1.33 | 1.35 | 1.11 | – | – | – | 0.426 | 0.411 | 0.378 | 0.265 | 0.276 | 0.297 |
